The values that follow come from patent US20140256656A1, “D-MANNOSE CONTRACEPTIVES” (Bio-Tech Pharmacal, Inc., priority 2002, published 2014).

The subject of experiment [1] is sperm adhering or attaching to the egg. The experiment in a line: Equine-field observation of conception after D-Mannose. It is filed as in vivo. The note with it: D-Mannose in sufficient quantities at the appropriate times. The text has this:
In the equine field, Mr. […] Accordingly, the invention finds application in all fields of mammal animal husbandry to prevent unwanted cross-breeding, and to also prevent unwanted unproductive periods that are caused by undesired breeding.

The next experiment has as its system bacteria. The following applies: as described in the referenced earlier patents and applications of Dale Benedict; cited from earlier work.

Take `O=C[C@@H](O)[C@@H](O)[C@H](O)[C@H](O)CO` [D-Mannose]: the likelihood of conception entry in experiment [1] is listed as “reduces the likelihood of conception”. For the same compound, in the experiment on bacteria, the “adherence of bacteria to membranes or cell walls” value is on record as “inhibits the adherence of bacteria to membranes or cell walls”.
